Data on two molecules can be found in ChEMBL document CHEMBL3351663, “Discovery of acylurea isosteres of 2-acylaminothiadiazole in the azaxanthene series of glucocorticoid receptor agonists” (Bioorg Med Chem Lett, 2014).

Structures are written as SMILES.

Data set [1] in a line: Half life in human liver microsomes.
A further data set concerns the target T1, Cytochrome P450 2C8 (Homo sapiens, UniProt P10632).
T1 sequence (P10632 whole entry): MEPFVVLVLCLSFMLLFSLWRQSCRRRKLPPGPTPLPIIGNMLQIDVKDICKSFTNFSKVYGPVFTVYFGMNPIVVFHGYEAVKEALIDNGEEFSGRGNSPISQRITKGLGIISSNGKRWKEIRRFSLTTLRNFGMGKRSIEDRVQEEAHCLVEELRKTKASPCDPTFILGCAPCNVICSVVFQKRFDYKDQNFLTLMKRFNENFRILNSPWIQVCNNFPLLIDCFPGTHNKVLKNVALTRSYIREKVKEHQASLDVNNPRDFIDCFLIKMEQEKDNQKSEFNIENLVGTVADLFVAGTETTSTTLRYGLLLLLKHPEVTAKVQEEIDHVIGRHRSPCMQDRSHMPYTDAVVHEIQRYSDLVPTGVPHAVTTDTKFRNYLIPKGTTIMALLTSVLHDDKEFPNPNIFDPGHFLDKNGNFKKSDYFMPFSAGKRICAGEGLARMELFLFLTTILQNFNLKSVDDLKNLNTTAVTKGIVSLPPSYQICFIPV
Briefly: Inhibition of CYP2C8 (unknown origin). In kind it is ADME.

In data set [2] the target is T2, Mineralocorticoid receptor (Homo sapiens, UniProt P08235).
T2 sequence (P08235 whole entry): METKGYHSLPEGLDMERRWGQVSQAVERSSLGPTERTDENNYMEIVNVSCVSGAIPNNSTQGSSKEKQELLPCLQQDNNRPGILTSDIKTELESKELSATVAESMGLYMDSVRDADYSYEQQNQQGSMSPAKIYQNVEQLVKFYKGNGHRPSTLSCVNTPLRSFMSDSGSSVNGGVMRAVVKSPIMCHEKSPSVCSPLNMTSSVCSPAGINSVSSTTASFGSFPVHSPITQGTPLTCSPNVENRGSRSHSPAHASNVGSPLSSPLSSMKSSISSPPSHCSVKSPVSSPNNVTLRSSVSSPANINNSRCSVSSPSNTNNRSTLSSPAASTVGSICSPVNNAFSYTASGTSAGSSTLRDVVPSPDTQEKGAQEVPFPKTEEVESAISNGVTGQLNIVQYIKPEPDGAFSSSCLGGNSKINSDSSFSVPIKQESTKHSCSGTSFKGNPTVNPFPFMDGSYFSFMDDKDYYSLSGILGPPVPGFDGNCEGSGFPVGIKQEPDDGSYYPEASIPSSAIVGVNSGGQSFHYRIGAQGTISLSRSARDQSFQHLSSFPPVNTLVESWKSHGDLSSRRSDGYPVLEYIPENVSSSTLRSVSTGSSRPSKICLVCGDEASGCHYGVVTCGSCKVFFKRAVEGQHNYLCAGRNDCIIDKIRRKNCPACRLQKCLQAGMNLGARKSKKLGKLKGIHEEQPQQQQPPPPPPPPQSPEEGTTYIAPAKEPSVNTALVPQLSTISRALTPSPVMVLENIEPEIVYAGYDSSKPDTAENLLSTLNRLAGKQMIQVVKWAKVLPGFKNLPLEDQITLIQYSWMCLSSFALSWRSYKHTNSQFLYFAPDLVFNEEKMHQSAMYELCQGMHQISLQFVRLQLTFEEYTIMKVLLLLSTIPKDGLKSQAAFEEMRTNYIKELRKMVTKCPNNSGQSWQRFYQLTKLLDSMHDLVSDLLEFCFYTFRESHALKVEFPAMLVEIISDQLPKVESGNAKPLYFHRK
Briefly: Agonist activity at mineralocorticoid receptor in human A549 cells. In kind it is cell-based.

For data set [3], the target named is T3, Glucocorticoid receptor (Homo sapiens, UniProt P04150).
T3 sequence (P04150 whole entry): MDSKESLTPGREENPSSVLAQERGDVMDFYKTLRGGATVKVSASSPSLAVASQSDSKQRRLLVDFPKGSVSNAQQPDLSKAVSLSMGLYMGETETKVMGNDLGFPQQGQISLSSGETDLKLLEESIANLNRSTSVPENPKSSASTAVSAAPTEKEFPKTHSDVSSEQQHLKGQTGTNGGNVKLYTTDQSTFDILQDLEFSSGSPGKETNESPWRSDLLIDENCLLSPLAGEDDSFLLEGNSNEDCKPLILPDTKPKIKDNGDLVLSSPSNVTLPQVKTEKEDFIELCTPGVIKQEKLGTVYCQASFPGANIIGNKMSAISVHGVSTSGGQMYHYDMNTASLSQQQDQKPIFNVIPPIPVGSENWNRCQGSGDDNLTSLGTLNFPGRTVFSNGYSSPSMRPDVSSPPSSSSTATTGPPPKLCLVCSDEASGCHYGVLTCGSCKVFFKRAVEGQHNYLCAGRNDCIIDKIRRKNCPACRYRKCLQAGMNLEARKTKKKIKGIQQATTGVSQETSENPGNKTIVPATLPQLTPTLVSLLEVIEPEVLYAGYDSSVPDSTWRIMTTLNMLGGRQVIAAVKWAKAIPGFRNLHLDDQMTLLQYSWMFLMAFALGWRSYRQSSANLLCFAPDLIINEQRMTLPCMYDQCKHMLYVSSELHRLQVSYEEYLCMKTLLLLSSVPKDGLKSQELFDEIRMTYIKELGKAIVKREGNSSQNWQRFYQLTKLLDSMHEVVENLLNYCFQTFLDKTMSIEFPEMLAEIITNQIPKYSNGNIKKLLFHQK
Also on record: species or system Blood.

A further data set addresses Cytochrome P450 2C19 (Homo sapiens, UniProt P33261). Briefly: Inhibition of CYP2C19 (unknown origin). The class given is ADME.
The target in data set [4] is T3, Glucocorticoid receptor. Briefly: Binding affinity to glucocorticoid receptor (unknown origin) by fluorescence polarization assay. A general note: Polarisation of emitted light reports the rotation of a fluorescent probe.
For the next data set, the target named is Cytochrome P450 2C9 (Homo sapiens, UniProt P11712). The data set is described as follows: Inhibition of CYP2C9 (unknown origin). The class given is ADME.
Cytochrome P450 2C9, sequence (P11712 whole entry): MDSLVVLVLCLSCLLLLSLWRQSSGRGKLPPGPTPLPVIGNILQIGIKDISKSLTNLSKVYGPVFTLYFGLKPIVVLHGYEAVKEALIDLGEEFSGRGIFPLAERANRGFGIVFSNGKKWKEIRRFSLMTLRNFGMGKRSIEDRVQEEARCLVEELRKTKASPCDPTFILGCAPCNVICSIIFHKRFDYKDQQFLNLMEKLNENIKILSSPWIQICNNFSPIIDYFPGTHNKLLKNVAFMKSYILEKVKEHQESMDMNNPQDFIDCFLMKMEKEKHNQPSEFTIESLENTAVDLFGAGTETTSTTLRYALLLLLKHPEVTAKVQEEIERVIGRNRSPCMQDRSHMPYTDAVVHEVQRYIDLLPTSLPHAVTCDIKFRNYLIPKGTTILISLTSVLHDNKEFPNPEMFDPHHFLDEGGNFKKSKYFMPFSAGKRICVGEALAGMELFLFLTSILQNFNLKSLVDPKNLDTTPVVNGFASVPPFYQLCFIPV

Cytochrome P450 2C19, sequence (P33261 whole entry): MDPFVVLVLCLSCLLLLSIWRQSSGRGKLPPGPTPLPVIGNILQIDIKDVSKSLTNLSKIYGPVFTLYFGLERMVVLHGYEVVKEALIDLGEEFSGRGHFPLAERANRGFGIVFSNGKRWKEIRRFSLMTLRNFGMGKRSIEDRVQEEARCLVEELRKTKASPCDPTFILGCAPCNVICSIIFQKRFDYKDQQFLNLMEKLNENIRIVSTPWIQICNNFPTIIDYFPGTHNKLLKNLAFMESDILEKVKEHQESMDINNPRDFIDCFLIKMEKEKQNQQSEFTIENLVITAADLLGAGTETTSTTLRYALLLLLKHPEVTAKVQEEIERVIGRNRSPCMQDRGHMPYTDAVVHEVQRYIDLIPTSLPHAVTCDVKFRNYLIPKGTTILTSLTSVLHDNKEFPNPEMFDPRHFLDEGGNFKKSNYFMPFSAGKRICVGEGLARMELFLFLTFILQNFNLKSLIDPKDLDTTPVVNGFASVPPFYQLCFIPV

As usually defined, the half-life is the time needed for the level to fall by half in the phase considered. Read a low half-life as rapid decline. The term IC50 denotes the point on the concentration scale where inhibition reaches its midpoint. A low value points to inhibition by little substance. In general, EC50 refers to the concentration that produces a half-maximal response. A lower EC50 goes with greater potency. The Ki is the dissociation constant of the complex between target and ligand, obtained from inhibition or displacement. Low readings indicate higher affinity, high ones lower affinity. In turn, `CC(C)(C(=O)Nc1nncs1)[C@@H]1c2ccc(-c3ccc(C(=O)N4CCOCC4)cc3)nc2Oc2c(F)cccc21` registered a half-life in data set [1] (liver microsomes) of 9.1 min. Also, the IC50 on Cytochrome P450 2C8 came out at 3700 nM; at Cytochrome P450 2C19 it was 1300 nM; at Cytochrome P450 2C9 it was 1000 nM. Besides, the results for the EC50 (in data set [2]; on Glucocorticoid receptor [3]) were above 5000 nM and 21.5 nM, respectively. Affinity on Glucocorticoid receptor [4] was put at a Ki of 1.6 nM.

In turn, `CC(C)(C(=O)NC(N)=O)[C@@H]1c2ccc(-c3ccc(C(=O)N4CCOCC4)cc3)nc2Oc2c(F)cccc21` displayed a half-life in data set [1] (microsomes) of 41 min. Also, the IC50 on Cytochrome P450 2C8 turned out to be 8900 nM; at Cytochrome P450 2C19 it was 11000 nM; on Cytochrome P450 2C9 it was 14000 nM. Also, the EC50 in data set [2] was above 5000 nM; at Glucocorticoid receptor [3] it was 20.3 nM. The Ki on Glucocorticoid receptor [4] was 2.1 nM.
